Results taken from patent publication US20230413810A1, “SANITISING FORMULATION” (Lumendo AG, priority 2020, published 2023).

Columns and labels:
Assay type in all cases: cell-based
[1] = tested on: Staphylococcus aureus (ATCC 6538); test: Direct contact test on glass plates, Log10 reduction of S. aureus (CFU/mL)
Description: The anti-microbial-retaining hydrogel formulation was prepared by the addition of Tetronic® 1107 tetramethacrylate (12.64% w/w), prepared according to Example 6, to glycerol (29.48% w/w). Then triethanolamine (0.84% w/w) was added in water (7.58% w/w), diphenyliodonium hexafluorophosphate (0.067% w/w) and 4-(diphenylphosphino)benzoic acid (0.166% w/w) were added in ethanol (8.16% w/w) and a specified amount of anti-microbial agent was added in PBS buffer ×1 (40.01% w/w). The mixture was placed into a thermoshaker and heated and shaken (50° C., 1200 rpm) for 20 minutes. Next, ethyl (2,4,6-trimethylbenzoyl) phenylphosphinate (0.31% w/w) and eosin Y (0.00125% w/w) were added to the mixture in ethanol (4.01% w/w) and the solution was mixed at room temperature for 20 seconds.
A 15 mL falcon tube containing 5 mL of BHI medium was inoculated with Staphylococcus aureus (ATCC 6538) and incubated overnight at 37° C. on a shaker (140 rpm). On the next day, a 15 mL falcon tube containing 5 mL BHI medium was inoculated with 100 μL of the overnight culture and incubated at 37° C. for 3.5 hours at 140 rpm.
Glass plates (18 mm×18 mm) were added with anti-microbial-retaining hydrogel formulation (50 μL) and covered with another glass plate (18 mm×18 mm) in the well of a 6-well plate. Samples were polymerized by the light from the laminar flow hood for 30 minutes. […]
S. aureus cultures were diluted to an OD600 (optical density at λ=600 nm) of 0.2 and 50 μL added to the glass plates (18 mm×18 mm) covered with the anti-microbial retaining hydrogel formulation of the present invention. Samples were covered with a glass plate (18 mm×18 mm) and incubated at 37° C. for 60 minutes. Bacteria were recovered by addition of 1 mL of BHI medium to each well and manually shaking the plate for 30 seconds. From each solution a four times ten-fold dilution series was prepared, resulting in 5 concentrations (each time adding 20 μL of the previous solution to 180 μL of PBS). A BHI agar plate was divided into 5 sectors and from each dilution, three drops of 10 μL were added to one sector. The plates were incubated overnight at 37° C. From the dilution containing 3-30 colonies, the CFU/mL (colony forming units per mL) were calculated and recorded.
Samples were prepared as triplicates. As negative controls, glass plates with no hydrogel and with hydrogel but no anti-microbial agent were prepared. As a control group, glass plates were added with stock solutions of the appropriate disinfectant in PBS (50 μL) at the same concentration as in the hydrogel.
For the washing of samples, the polymerized hydrogel sample was washed with 1 mL PBS solution, after which the PBS solution was removed. The sample was let air dry for 15 minutes before bacterial was then applied as described above.

P. aeruginosa = test: Direct contact test on glass plates, Log10 reduction of P. aeruginosa
[2] = tested on: Staphylococcus aureus (ATCC 6538); test: Direct contact test on glass plates, Log10 reduction of S. aureus (CFU/mL); remark: listed apart in the source
[3] = modified anti-microbial agents 1% w/w in hydrogel formulation according to Example 22
[4] = unmodified anti-microbial agents 1.0% w/w in hydrogel (Sterilium with no hydrogel), 0 washes with 1 mL water
[5] = unmodified anti-microbial agents 1.0% w/w in hydrogel (Sterilium with no hydrogel), 5 washes with 1 mL water
[6] = unmodified anti-microbial agents 0.1% w/w in hydrogel (Sterilium with no hydrogel), 0 washes with 1 mL water
[7] = unmodified anti-microbial agents 0.1% w/w in hydrogel (Sterilium with no hydrogel), 5 washes with 1 mL water
[8] = DDAC 0.1% w/w in polymerized hydrogel vs other sanitizing agents on glass surfaces, 0 washes
[9] = DDAC 0.1% w/w in polymerized hydrogel vs other sanitizing agents on glass surfaces, 5 washes with 1 mL water

16-(N,N,N-Benzylbutylmethylammonium)cetyl methacrylate bromide
Log10 reduction of S. aureus [1, 3]: >4 Log10
Log10 reduction of P. aeruginosa (P. aeruginosa; [3]): <1 Log10

2-(N,N,N-dodecylmethylbenzylammonium)ethyl methacrylate bromide
Log10 reduction of S. aureus [1, 3]: >4 Log10
Log10 reduction of P. aeruginosa (P. aeruginosa; [3]): 3 Log10

C=C(C)C(=O)OCCOCC[n+]1ccc(CCCCCCCCCCCCCCCCC)cc1.[Cl-] [2-(4-heptadecylpyridin-1-uim)ethoxyethyl methacrylate chloride]
Log10 reduction of S. aureus [1, 3]: >1 Log10
Log10 reduction of P. aeruginosa (P. aeruginosa; [3]): <1 Log10

CCCCCCCCCC[N+](C)(C)CCCCCCCCCC.[Cl-] [Didecyldimethylammonium chloride, didecyldimethylammonium chloride]
Log10 reduction of P. aeruginosa (P. aeruginosa; [4]): 2 Log10
Log10 reduction of P. aeruginosa (P. aeruginosa; [5]): >4 Log10
Log10 reduction of S. aureus [2, 6]: >3 Log10
Log10 reduction of S. aureus [2, 7]: >4 Log10

Benzalkonium chloride
Log10 reduction of P. aeruginosa (P. aeruginosa; [4]): >1 Log10
Log10 reduction of P. aeruginosa (P. aeruginosa; [5]): >4 Log10
Log10 reduction of S. aureus [2, 6]: 2 Log10
Log10 reduction of S. aureus [2, 7]: >4 Log10

C=C(C)C(=O)OCCOCC[n+]1ccc(CCCCCCCCCCCCC)cc1.[Cl-] [2-(4-Tridecylpyridin-1-uim)ethoxyethyl methacrylate chloride]
Log10 reduction of S. aureus [1, 3]: >4 Log10
Log10 reduction of P. aeruginosa (P. aeruginosa; [3]): 1 Log10

CC(C)O [60% Isopropanol, Isopropanol]
Log10 reduction of S. aureus [2, 8]: >4 Log10
Log10 reduction of S. aureus [2, 9]: <1 Log10

2-(N,N,N-Dodecyldimethylammonium)ethyl methacrylate bromide
Log10 reduction of S. aureus [1, 3]: 3 Log10
Log10 reduction of P. aeruginosa (P. aeruginosa; [3]): 1 Log10

CCO [70% Ethanol, Ethanol]
Log10 reduction of S. aureus [2, 8]: >4 Log10
Log10 reduction of S. aureus [2, 9]: <1 Log10

2-(N,N,N-Cetylmethylbenzylammonium)ethyl methacrylate bromide
Log10 reduction of S. aureus [1, 3]: >2 Log10
Log10 reduction of P. aeruginosa (P. aeruginosa; [3]): <1 Log10

CC(C)(C)CC(C)(C)c1ccc(OCCOCC[N+](C)(C)Cc2ccccc2)cc1 [Anti-microbial agent on glass surface, benzethonium chloride]
Log10 reduction of S. aureus ([1]; benzethonium chloride 0.1% w/w, on glass with no hydrogel or in polymerized hydrogel, 20 washes with 1 mL water): <1 Log10
Log10 reduction of S. aureus ([2]; benzethonium chloride 0.1% w/w, on glass with no hydrogel or in polymerized hydrogel, 0 washes with 1 mL water): >4 Log10
Log10 reduction of S. aureus ([2]; benzethonium chloride 0.1% w/w, on glass with no hydrogel or in polymerized hydrogel, 5 washes with 1 mL water): <1 Log10
Log10 reduction of S. aureus ([2]; benzethonium chloride 0.1% w/w, on glass with no hydrogel or in polymerized hydrogel, 10 washes with 1 mL water): <1 Log10

N=C(NCCCCCCNC(=N)NC(=N)Nc1ccc(Cl)cc1)NC(=N)Nc1ccc(Cl)cc1 [Chlorohexidine]
Log10 reduction of P. aeruginosa (P. aeruginosa; [4]): >2 Log10
Log10 reduction of P. aeruginosa (P. aeruginosa; [5]): >4 Log10
Log10 reduction of S. aureus [2, 6]: >4 Log10
Log10 reduction of S. aureus [2, 7]: >4 Log10

9-(N,N,N-Benzylbutylmethylammonium)nonyl methacrylate bromide
Log10 reduction of S. aureus [1, 3]: <1 Log10
Log10 reduction of P. aeruginosa (P. aeruginosa; [3]): 1 Log10

CC(C)(C)CC(C)(C)c1ccc(OCCOCC[N+](C)(C)Cc2ccccc2)cc1 [Benzethonium chloride, benzethonium chloride]
Log10 reduction of S. aureus ([1]; 0.1% w/w in hydrogel (Example 28), 20 washes with 1 mL water): 2 Log10
Log10 reduction of S. aureus ([2]; 0.1% w/w in hydrogel (Example 28), 0 washes with 1 mL water): 2 Log10
Log10 reduction of S. aureus ([2]; 0.1% w/w in hydrogel (Example 28), 5 washes with 1 mL water): 3 Log10
Log10 reduction of S. aureus ([2]; 0.1% w/w in hydrogel (Example 28), 2 hours soaking in water): 3 Log10
Log10 reduction of S. aureus [2, 6]: 2 Log10
Log10 reduction of S. aureus [2, 7]: 3 Log10

C=C(C)C(=O)OCCOCC[N+](C)(C)CCCCCCCCCCCCCCCC.[Cl-] [2-(N,N,N-Cetyldimethylammonium)ethoxyethyl methacrylate chloride]
Log10 reduction of S. aureus [1, 3]: >1 Log10
Log10 reduction of P. aeruginosa (P. aeruginosa; [3]): >1 Log10

C=C(C)C(=O)OCC[N+](C)(C)CCOCCOc1ccc(C(C)(C)CC(C)(C)C)cc1.[Cl-] [2-(methacryloyloxy)-N,N-dimethyl-N-(2-(2-(4-(2,4,4-trimethylpentan-2-yl)phenoxy)ethoxy)ethyl)ethan-1-aminium chloride]
Log10 reduction of S. aureus [1, 3]: >4 Log10
Log10 reduction of P. aeruginosa (P. aeruginosa; [3]): 1 Log10
Log10 reduction of S. aureus ([2]; 1% w/w in hydrogel, 0 washes with 1 mL water): >4 Log10
Log10 reduction of S. aureus ([2]; 1% w/w in hydrogel, 5 washes with 1 mL water): >3 Log10
Log10 reduction of S. aureus ([2]; 1% w/w in hydrogel, 20 washes with 1 mL water): 4 Log10
Log10 reduction of S. aureus ([2]; 1% w/w in hydrogel, 2 hours soaking in water): >3 Log10

12-(N,N,N-Benzylbutylmethylammonium)dodecyl methacrylate bromide
Log10 reduction of S. aureus [1, 3]: >4 Log10
Log10 reduction of P. aeruginosa (P. aeruginosa; [3]): 1 Log10

12-(N,N,N-Butyldimethylammonium)dodecyl methacrylate bromide
Log10 reduction of S. aureus [1, 3]: >1 Log10
Log10 reduction of P. aeruginosa (P. aeruginosa; [3]): 1 Log10
